# Earlier results in patent EP0801943A2, “Cosmetic and dermatological photoprotective compositions containing a triazine derivative and alkyl and/or dialkylesters of alpha, omega-alkanedicarboxylic acid” (Beiersdorf Aktiengesellschaft, priority 1996, dated 1997).
# Conditions: maximum amount of the filter that known solvents (Bekannte Lösungsmittel) can dissolve; prior-art statement, no test described
structure (smiles),measurement,value
"CCCCC(CC)COC(=O)c1ccc(Nc2nc(Nc3ccc(C(=O)OCC(CC)CCCC)cc3)nc(Nc3ccc(C(=O)OCC(CC)CCCC)cc3)n2)cc1 (stereo not shown) [UVINUL® T 150, 4,4',4''-(1,3,5-Triazin-2,4,6-triyltriimino)-tris-benzoesäure-tris(2-ethylhexylester)]",Löslichkeit in Lipiden,≤ 15 Gew.-%
